Results on 14 compounds are retold here after patent publication US12116356B2, “N-heterocyclic five-membered ring-containing capsid protein assembly inhibitor, pharmaceutical composition thereof, and use thereof” (CHIA TAI TIANQING PHARMACEUTICAL GROUP CO., LTD., priority 2018, dated 2024).

The structures appear in SMILES notation. In brackets after ≈: the same amount, converted by molar mass.

Broadly, the EC50 is the concentration at which the effect is half-maximal. The CC50 is the concentration at which the toxic effect on the cells reaches its halfway point. As a reminder, the solubility is the concentration that dissolves in the medium under given conditions. High values mean much dissolved substance, low ones little dissolved substance.

Data set [1] relates to HBV DNA in HepG2.2.15 cells. The data set is described as follows: In vitro cell HBV DNA inhibitory activity (anti-HBV activity) in HepG2.2.15 cells. It counts as cell-based. To be noted: Hepatitis B virus, 144 h; anti-HBV activity in HepG2.2.15 cells, 6 days treatment, intracellular capsid HBV DNA by qPCR; read-out: EC50. As for the experimental part:
(§1) A bottle of HepG2.2.15 or HepAD38 cells in good exponential growth state was taken, washed once by adding 5 mL PBS, and then thereto was added 3 mL trypsin. After digesting at room temperature for 5 min, 2 mL trypsin was discarded, and then the sample was placed in a cell culture incubator and digested for 10 min. The cells were taken out from time to time and observed under a microscope (whether the cells were individually round and there was no adhesion between the cells). 10 mL complete medium was added to terminate the digestion. After pipetting into a single cell suspension, 10 μL of the cell suspension was taken out for cell counting with a cell counter, and then diluted with a complete medium and adjusted to a cell density of 1*10^5 cells/mL. Then the cell suspension was seeded at 1 mL/well in a 24-well plate with a multi-channel pipette (the 24-well plate was coated with 50 μg/mL Collagen I solution in advance), and cultured in a constant temperature CO2 incubator for 48 h.
(§2) Different compounds dissolved in DMSO were subjected to two-fold gradient dilution (10 concentrations in total) with complete medium. The compound was added, and fresh medium containing the compound was used to replace the spent medium every 72 hours. The cells were treated with the compound for 6 days. After the supernatant was siphoned off, 300 μL lysate (10 mM Tris-HCl, 1 mM EDTA, and 1% NP-40) was added to each well. After lysing at room temperature for 10 min, DNA was extracted, and HBV DNA in the intracellular viral capsid was measured by real-time fluorescence quantitative PCR. The inhibition rate was calculated based on the Ct value, and the EC50 value was calculated by the four-parameter method.
For orientation: In qPCR the cycle at which signal appears reflects the starting amount.

The test system of a further data set is HBV DNA in HepAD38 cells. The data set is described as follows: In vitro cell HBV DNA inhibitory activity (anti-HBV activity) in HepAD38 cells. The format is cell-based. The conditions noted are these: Hepatitis B virus, 144 h; anti-HBV activity in HepAD38 cells, 6 days treatment, intracellular capsid HBV DNA by qPCR; read-out: EC50. The protocol: as §1, §2

Data set [2] can be described thus: In vitro cytotoxicity (CCK-8) in HepG2.2.15 cells. The conditions noted are these: human. It counts as cell-based. As for the experimental part: (§3) A bottle of HepG2.2.15 or HepAD38 cells in good exponential growth state was taken, washed once by adding 5 mL PBS, and then thereto was added 3 mL trypsin. The sample was digested in a cell culture incubator, and taken out from time to time and observed under a microscope. When the cells just fell off, 1 mL trypsin was discarded. The residual liquid was placed in a cell culture incubator at 37° C. and digested for 8-15 min. The cells were taken out and observed under a microscope (whether the cells were individually round and there was no adhesion between the cells). 5 mL MEM medium was added for cell resuspension. The cells were then subjected to cell counting with a cell counter, diluted with a complete medium, and adjusted to a cell density of 2*10^5 cells/mL. Then the cells were seeded at 100 μL/well in a 96-well plate with a multi-channel pipette (the 96-well plate was coated with 50 μg/mL Collagen I solution in advance), and cultured in a constant temperature CO2 incubator for 24 h. The cells were treated by drug administration, and fresh medium containing the compound was used to replace the spent medium every 3 days. To control wells was added a drug-free medium containing 0.5% DMSO, and a control well containing a common medium was set up. 6 days after the administration, CCK-8 was added at 10 μL/well. After 1 to 2 hours, the absorbance was detected with microplate reader at 450 nm, and the inhibition rate and the CC50 were calculated.

Data set [3] can be described thus: Solubility in PBS buffer at pH 7.4. The format is physicochemical. To be noted: aqueous buffer, PBS buffer pH 7.4, 25° C. The protocol:
[…] After standing at 25° C. for 16 hours, the system was centrifugated (12000 rpm, room temperature) for 10 min. 20 μL of the supernatant was taken out, and the reaction was terminated with 400 μL of acetonitrile containing an internal standard (diazepam 20 ng/mL). 30 μL of the supernatant was pipetted, and 150 μL of 50% acetonitrile aqueous solution was added thereto for dilution and mixed uniformly. 0.5 μL of the resulting solution was injected for analysis.

Data set [4] can be described thus: In vitro cytotoxicity (CCK-8) in HepAD38 cells. It counts as cell-based. The conditions noted are these: human. As for the experimental part:
as §3

The nature of data set [5]: Stability of human liver microsomes in vitro. It counts as in vitro ADME. The protocol:
(§4) 300 μL of a final incubation system contains 30 μL of liver microsomes (protein concentration: 0.15 mg/mL), 30 μL NADPH+MgCl2, 3 μL substrate (formulated with acetonitrile), and 237 μL PBS buffer. Duplicate incubation systems of 0.3 mL each were formulated for each species. A total volume of 270 μL of a uniformly mixed solution of the substrate and the enzyme was formulated in each tube, the solution and NADPH were pre-incubated at 37° C. for 5 minutes, respectively. Then 30 μL of the mixed solution of NADPH+MgCl2 was added for reaction. 50 μL of the reaction solution was taken out at 0, 10, 30, and 60 mins, and the reaction was terminated with 300 μL of ice acetonitrile containing an internal standard.
(§5) Sample pre-treatment: To 50 μL of the incubated sample was added 300 μL of ice acetonitrile containing diazepam as an internal standard and then precipitated. After vortexing for 5 minutes, the sample was centrifugated (12000 rpm, 4° C.) for 10 minutes. 75 μL of the supernatant was pipetted into a 96-well plate, and then diluted with 75 μL ultrapure water and mixed uniformly. 0.5 μL of the resulting solution was injected and analyzed by LC-MS/MS.
(In general: Liver microsomes are vesicles of endoplasmic reticulum, rich in cytochrome P450 enzymes.)

A short description of data set [6]: Stability of rat liver microsomes in vitro. It counts as in vitro ADME. The protocol:
as §4, §5

Data set [7] is described as follows: Stability of mouse liver microsomes in vitro. The format is in vitro ADME. As for the experimental part:
as §4, §5

For the compound `COC(=O)C(C)(C)NC(=O)C(=O)c1c(C)c(C(=O)Nc2ccc(F)c(C#N)c2)c(C)n1C` [Example 9, methyl (2-(4-((3-cyano-4-fluorophenyl)carbamoyl)-1,3,5-trimethyl-1H-pyrrole-2-yl)-2-oxoacetylamino)-2-methylpropionate], the EC50 is 0.01 to 0.05 µM in data set [1] and less than 0.01 µM with HBV DNA in HepAD38 cells. The CC50 at 6 days in data set [2] and in data set [4] was greater than 100 µM throughout. Further, the concentration in solution in data set [3] (solubility at 16 h) came to 9.6 µM (≈ 4.25 µg/mL).

For `Cc1c(C(=O)Nc2ccc(F)c(C#N)c2)c(C)n(C)c1C(=O)C(=O)NC12CC(C1)C2` [Example 2, 5-(2-(Bicyclo[1.1.1]pentan-1-ylamino)-2-oxoacetyl)-N-(3-cyano-4-fluorophenyl)-1,2,4-trimethyl-1H-pyrrole-3-carboxamide], the EC50 (in data set [1]; in the data set with HBV DNA in HepAD38 cells) was less than 0.01 µM in each case. Moreover, the solubility at 16 h in data set [3] amounted to 22.1 µM (≈ 9.03 µg/mL). In addition, in data set [4], the CC50 at 6 days was greater than 100 µM.

Take `Cc1c(C(=O)Nc2ccc(F)c(C#N)c2)c(Br)n(C)c1C(=O)C(=O)NC(C)(C)C` [Example 15, 2-bromo-5-(2-(tert-butylamino)-2-oxoacetyl)-N-(3-cyano-4-fluorophenyl)-1,4-dimethyl-1H-pyrrole-3-carboxamide]: the EC50 in data set [1] is 0.01 to 0.05 µM; with HBV DNA in HepAD38 cells, less than 0.01 µM. In data set [3], this compound came in with a solubility at 16 h of 4.9 µM (≈ 2.27 µg/mL). The same compound displayed a CC50 at 6 days in data set [4] greater than 100 µM.

In the case of `Cc1c(C(=O)Nc2ccc(F)c(N)c2)c(C)n(C)c1C(=O)C(=O)N[C@@H](C)C(F)(F)F` [Example 42, (S)—N-(3-amino-4-fluorophenyl)-1,2,4-trimethyl-5-(2-oxo-2-((1,1,1-trifluoroprop-2-yl)amino)acetyl)-1H-pyrrole-3-carboxamide], the “Remaining (%) at 60 min” value was determined as 102% in data set [5], 85.3% in data set [6] and 61.9% in data set [7]. In addition, the values for the EC50 (in data set [1]; in the data set with HBV DNA in HepAD38 cells) were less than 0.01 µM and 0.01 to 0.05 µM, respectively. The same compound yielded a CC50 at 6 days in data set [2] greater than 100 µM.

With `Cc1c(C(=O)Nc2ccc(F)c(C#N)c2)c(Cl)n(C)c1C(=O)C(=O)N[C@@H](C)C(F)(F)F` [Example 29, (S)-2-chloro-N-(3-cyano-4-fluorophenyl)-1,4-dimethyl-5-(2-oxo-2-((1,1,1-trifluoroprop-2-yl)amino)acetyl)-1H-pyrrole-3-carboxamide], the entries for the “Remaining (%) at 60 min” value in data set [5], in data set [6] and in data set [7] were 99.6%, 88.7% and 99.2%, respectively. Further, the EC50 was 0.01 to 0.05 µM in data set [1] and less than 0.01 µM in the data set with HBV DNA in HepAD38 cells. In addition, the CC50 at 6 days in data set [2] and in data set [4] was greater than 100 µM in each case.

For `C#CCNC(=O)C(=O)c1c(C)c(C(=O)Nc2ccc(F)c(C#N)c2)c(C)n1C` [Example 1, N-(3-cyano-4-fluorophenyl)-1,2,4-trimethyl-5-(2-oxo-2-(prop-2-yn-1-ylamino)acetyl)-1H-pyrrole-3-carboxamide], the figures for the “Remaining (%) at 60 min” value in data set [5] and in data set [6] were 69% and 44%, respectively. The EC50 (in data set [1]; with HBV DNA in HepAD38 cells) was 0.01 to 0.05 µM throughout. The CC50 at 6 days in data set [2] and in data set [4] was greater than 100 µM throughout.

On to `Cc1c(C(=O)Nc2ccc(F)c(C#N)c2)c(Cl)n(C)c1C(=O)C(=O)NC(C)(C)C` [Example 17, 5-(2-(tert-butylamino)-2-oxoacetyl)-2-chloro-N-(3-cyano-4-fluorophenyl)-1,4-dimethyl-1H-pyrrole-3-carboxamide], for which the entries for the “Remaining (%) at 60 min” value in data set [6] and in data set [7] were 44.9% and 47.4%, respectively. Further, in data set [1], the EC50 lay in the range of 0.01 to 0.05 µM. Also, the CC50 at 6 days in data set [2] and in data set [4] was greater than 100 µM in each case.

Regarding `Cc1c(C(=O)Nc2ccc(F)c(C#N)c2)c(C)n(C)c1C(=O)C(=O)NC1(C)CS(=O)(=O)C1` [Example 45, N-(3-cyano-4-fluorophenyl)-1,2,4-trimethyl-5-(2-((3-methyl-1,1-dioxidothietan-3-yl)amino)-2-oxoacetyl)-1H-pyrrole-3-carboxamide], the “Remaining (%) at 60 min” value was determined as 73% in data set [5] and 47% in data set [6]. Moreover, the figures for the EC50 (in data set [1]; with HBV DNA in HepAD38 cells) were less than 0.01 µM and 0.01 to 0.05 µM, respectively.

As for `Cc1c(C(=O)Nc2ccc(F)c(C#N)c2)c(C)n(C)c1C(=O)C(=O)NC1(C)CCOCC1` [Example 24, N-(3-cyano-4-fluorophenyl)-1,2,4-trimethyl-5-(2-((4-methyltetrahydro-2H-pyran-4-yl)amino)-2-oxoacetyl)-1H-pyrrole-3-carboxamide], the EC50 (in data set [1]; with HBV DNA in HepAD38 cells) was less than 0.01 µM throughout. The CC50 at 6 days in data set [2] and in data set [4] was greater than 100 µM each time.

For `Cc1c(C(=O)Nc2ccc(F)c(C#N)c2)c(C)n(C)c1C(=O)C(=O)NC1(CO)CC1` [Example 27, N-(3-cyano-4-fluorophenyl)-5-(2-((1-(hydroxymethyl)cyclopropyl)amino)-2-oxoacetyl)-1,2,4-trimethyl-1H-pyrrole-3-carboxamide], the EC50 (in data set [1]; in the data set on HBV DNA in HepAD38 cells) was 0.01 to 0.05 µM throughout. The CC50 at 6 days in data set [2] and in data set [4] was greater than 100 µM throughout.

In the case of `Cc1c(C(=O)Nc2ccc(F)c(C#N)c2)c(C)n(C)c1C(=O)C(=O)N[C@H]1CCOC1` [Example 22], the EC50 (in data set [1]; with HBV DNA in HepAD38 cells) was 0.01 to 0.05 µM throughout. Further, the half-maximal cytotoxic concentration (CC50) at 6 days in data set [2] and in data set [4] was greater than 100 µM throughout.

As to `Cc1c(C(=O)Nc2ccc(F)c(C#N)c2)c(C)n(C)c1C(=O)C(=O)NC1(C)CCOC1` (centres unmarked) [Example 23], the EC50 (in data set [1]; with HBV DNA in HepAD38 cells) was less than 0.01 µM each time. Moreover, the CC50 at 6 days in data set [2] and in data set [4] was greater than 100 µM each time.

As for `Cc1c(C(=O)Nc2ccc(F)c(C#N)c2)c(Cl)n(C)c1C(=O)C(=O)N[C@H](C)C(F)(F)F` [Example 30, (R)-2-chloro-N-(3-cyano-4-fluorophenyl)-1,4-dimethyl-5-(2-oxo-2-((1,1,1-trifluoroprop-2-yl)amino)acetyl)-1H-pyrrole-3-carboxamide], the EC50 was less than 0.01 µM in data set [1] and 0.01 to 0.05 µM in the data set on HBV DNA in HepAD38 cells. Also, the CC50 at 6 days in data set [2] and in data set [4] was greater than 100 µM each time.

With `Cc1c(C(=O)Nc2ccc(F)c(C#N)c2)c(C)n(C)c1C(=O)C(=O)NC(C)(C)CO` [Example 8, N-(3-cyano-4-fluorophenyl)-5-(2-((1-hydroxy-2-methylpropan-2-yl)amino)-2-oxoacetyl)-1,2,4-trimethyl-1H-pyrrole-3-carboxamide], the “Remaining (%) at 60 min” value came out at 70.6% in data set [5] and 52.0% in data set [6]. The EC50 (in data set [1]; in the data set on HBV DNA in HepAD38 cells) was less than 0.01 µM each time. Also, the CC50 at 6 days in data set [2] and in data set [4] was greater than 100 µM in each case. In data set [3], this compound showed a solubility at 16 h of 80.9 µM (≈ 33.5 µg/mL).
